{
  "source": "patent US20110098177A1",
  "about": "“METHODS AND COMPOSITIONS OF PLANT MICRONUTRIENTS” (NOVUS INTERNATIONAL INC., priority 2006, published 2011)",
  "type_in_all_cases": "in vivo",
  "key": {"[1]": {"tested_on": "Patriot bell pepper plants", "assay": "Marketable yield, open-field bell pepper (Examples 7-10)", "details": "open field; lb/acre/season: BIOX-Z 1.3, Cu 6.7, M 23.0, Fe 3.2, INC 4.0, INZ 0.6, CM 10.0, GZ 1.0, GF 4.0, EDZ 1.4, EDM 23.0", "procedure": "(§1) The following experiments were performed in open-field plots during the spring of 2008 at GCREC, Balm, University of Florida. Four products delivering Zn (BIOX-Z), Mn (BIOX-M), Cu (BIOX-Cu), and Fe (BIOX-Fe) were compared to other micronutrient supplement formulations in tomato and bell pepper plants.\n(§2) The plot sizes for the tomato plants were 30-ft plots (15 plants per plot) and 15-ft plots were used for the bell pepper plants (30 plants per plot). Crop set-up, procedures and variables were as follows.\n(§3) Transplants of ‘Tygress’ tomato plants and ‘Patriot’ bell pepper plants in the 4-true leaf stage (about 6 inches tall) were planted in raised beds in open-field plots. The cross-section of each raised bed was 28 inches wide at the top, 32 inches wide at the base, and 8 inches tall. Irrigation and non-micronutrient fertilizer were provided daily through two drip lines per bed (0.45 gal/100 ft bed/min) at recommended rates for tomato and bell pepper production in Florida. […] The height of the plants for each of the treatment groups was measured at 3 weeks after transplantation (WAT), just prior to treatment with the experimental foliar fertilizers.\n(§4) All foliar fertilizers except BIOX-CM were applied to the various treatment groups at 3 weeks after transplantation (WAT) and again at 5 WAT. The BIOX-CM treatment was applied at 4 and 5 WAT. The working water volume was 60 gal/acre and a non-ionic surfactant (Ad-Spray 80) was added in the amount of 2 pints/100 gal water. All plots were sprayed with sprayers pressurized at 25 psi and the canopies of both crops were covered with the micronutrient solutions. Treated plots were isolated during foliar fertilizer application to avoid the cross-contamination of other treatments on adjoining plots.\n(§5) Leaf samples were collected from the most recent mature leaves from each plant at 6 WAT (2 weeks after initial treatment). Foliar tissue analysis was performed by a commercial laboratory to determine the concentration of N, P, K, Mg, Ca, B, Zn, Mn, Fe, and Cu. Tomato marketable fruit weights were collected at 10 and 12 WAT, and the fruits were graded according to USDA standards. Pepper marketable fruit weights were determined beginning at 5 WAT over 5 weekly harvests. Fruit mineral analysis (N, P, K, Mg, Ca, B, Zn, Mn, Fe, and Cu) was performed on samples from the tomato harvest.\n(§6) The experimental design was a randomized complete block design with 5 replications for each treatment. All comparison data were analyzed using a general linear model and the means of each treatment were separated with a Fisher's protected LSD test at the 5% significance level."}, "Tygress tomato plants [2]": {"tested_on": "Tygress tomato plants", "assay": "Foliar nutrient concentration at 6 WAT, open-field tomato (Examples 7-10)", "details": "6 WAT, open field", "procedure": "as §1, §2, §3, §4, §5, §6"}, "[3]": {"tested_on": "Patriot bell pepper plants", "assay": "Foliar nutrient concentration at 6 WAT, open-field bell pepper (Examples 7-10)", "details": "6 WAT; open field; product rate as Table 17", "procedure": "as §1, §2, §3, §4, §5, §6"}, "Tygress tomato plants [4]": {"tested_on": "Tygress tomato plants", "assay": "Marketable yield, open-field tomato (Examples 7-10)", "details": "open field; lb/acre/season: BIOX-Z 1.3, Cu 6.7, M 23.0, Fe 3.2, INC 4.0, INZ 0.6, CM 10.0, GZ 1.0, GF 4.0, EDZ 1.4, EDM 23.0", "procedure": "as §1, §2, §3, §4, §5, §6"}, "Tygress tomato plants [5]": {"tested_on": "Tygress tomato plants", "assay": "Nutrient concentration of tomato fruits at 10 WAT, open field (Examples 7-10)", "details": "10 WAT; open field; product rate as Table 17", "procedure": "as §1, §2, §3, §4, §5, §6"}},
  "data": [
    {"substance": "manganese citrate [BIOX-CM]", "values": [
      {"measurement": "Marketable yield, Bell Pepper", "setting": "[1]", "value": 8.0, "unit": "ton/acre"},
      {"measurement": "Foliar concentration of Mn of tomato plants, statement", "setting": "Tygress tomato plants [2]", "value": "significantly higher foliar concentration of Mn compared to control"},
      {"measurement": "Foliar B concentration of tomato plants", "setting": "Tygress tomato plants [2]; product rate as Table 17", "value": 43, "unit": "ppm"},
      {"measurement": "Foliar Ca concentration of tomato plants", "setting": "Tygress tomato plants [2]; product rate as Table 17", "value": 1.8, "unit": "%"},
      {"measurement": "Foliar Cu concentration of tomato plants", "setting": "Tygress tomato plants [2]; product rate as Table 17", "value": 326, "unit": "ppm"},
      {"measurement": "Foliar Fe concentration of tomato plants", "setting": "Tygress tomato plants [2]; product rate as Table 17", "value": 85, "unit": "ppm"},
      {"measurement": "Foliar K concentration of tomato plants", "setting": "Tygress tomato plants [2]; product rate as Table 17", "value": 5.0, "unit": "b %"},
      {"measurement": "Foliar Mg concentration of tomato plants", "setting": "Tygress tomato plants [2]; product rate as Table 17", "value": 0.66, "unit": "%"},
      {"measurement": "Foliar Mn concentration of tomato plants", "setting": "Tygress tomato plants [2]; product rate as Table 17", "value": 272, "unit": "b ppm"},
      {"measurement": "Foliar N concentration of tomato plants", "setting": "Tygress tomato plants [2]; product rate as Table 17", "value": 5.1, "unit": "%"},
      {"measurement": "Foliar P concentration of tomato plants", "setting": "Tygress tomato plants [2]; product rate as Table 17", "value": 0.24, "unit": "a %"},
      {"measurement": "Foliar Zn concentration of tomato plants", "setting": "Tygress tomato plants [2]; product rate as Table 17", "value": 242, "unit": "b ppm"},
      {"measurement": "Foliar B concentration of bell pepper plants", "setting": "[3]", "value": 63, "unit": "ppm"},
      {"measurement": "Foliar Ca concentration of bell pepper plants", "setting": "[3]", "value": 4.2, "unit": "%"},
      {"measurement": "Foliar Cu concentration of bell pepper plants", "setting": "[3]", "value": 364, "unit": "ppm"},
      {"measurement": "Foliar Fe concentration of bell pepper plants", "setting": "[3]", "value": 121, "unit": "ppm"},
      {"measurement": "Foliar K concentration of bell pepper plants", "setting": "[3]", "value": 3.6, "unit": "%"},
      {"measurement": "Foliar Mg concentration of bell pepper plants", "setting": "[3]", "value": 0.47, "unit": "%"},
      {"measurement": "Foliar Mn concentration of bell pepper plants", "setting": "[3]", "value": 594, "unit": "ppm"},
      {"measurement": "Foliar N concentration of bell pepper plants", "setting": "[3]", "value": 4.3, "unit": "%"},
      {"measurement": "Foliar P concentration of bell pepper plants", "setting": "[3]", "value": 0.23, "unit": "%"},
      {"measurement": "Foliar Zn concentration of bell pepper plants", "setting": "[3]", "value": 44, "unit": "ppm"},
      {"measurement": "Marketable yield, Tomato", "setting": "Tygress tomato plants [4]", "value": 13.9, "unit": "b ton/acre"},
      {"measurement": "B concentration of tomato fruits", "setting": "Tygress tomato plants [5]", "value": 22, "unit": "ppm"},
      {"measurement": "Ca concentration of tomato fruits", "setting": "Tygress tomato plants [5]", "value": 0.2, "unit": "%"},
      {"measurement": "Cu concentration of tomato fruits", "setting": "Tygress tomato plants [5]", "value": 21, "unit": "b ppm"},
      {"measurement": "Fe concentration of tomato fruits", "setting": "Tygress tomato plants [5]", "value": 73, "unit": "b ppm"},
      {"measurement": "K concentration of tomato fruits", "setting": "Tygress tomato plants [5]", "value": 7.9, "unit": "%"},
      {"measurement": "Mg concentration of tomato fruits", "setting": "Tygress tomato plants [5]", "value": 0.37, "unit": "%"},
      {"measurement": "Mn concentration of tomato fruits", "setting": "Tygress tomato plants [5]", "value": 40, "unit": "b ppm"},
      {"measurement": "N concentration of tomato fruits", "setting": "Tygress tomato plants [5]", "value": 4.2, "unit": "%"},
      {"measurement": "P concentration of tomato fruits", "setting": "Tygress tomato plants [5]", "value": 0.57, "unit": "%"},
      {"measurement": "Zn concentration of tomato fruits", "setting": "Tygress tomato plants [5]", "value": 217, "unit": "b ppm"}
    ]}
  ]
}
